Series [1] concerns P. falciparum 3D7. Briefly: Inhibition of parasite growth in P. falciparum 3D7-infected red blood cells. Format: cell-based, Plasmodium falciparum. The settings on record: for fold reduction in 3D7 potency: relative to 4e (isopentyl R1); for 3D7 potency described in words (relative to comparator): comparator 4e unless 4-series (4a); for fold loss in 3D7 potency: R8 changes relative to parent analog (4a series); for IC50: Plasmodium falciparum, 3D7, Erythrocyte.

Series [2] relates to P. falciparum 3D7. The following applies: read-out: reported XC50; TCAMS screening dataset; cited from earlier work.
Series [3] concerns Plasmodium. The settings on record: read-out: reported EC50; Novartis-GNF collection, GNF-Pf-5345; cited from earlier work.
Series [4] can be described thus: Rat PK experiment in vivo. The following applies: iv, 1 mg/kg.
Series [5] has as its system HepG2 cells. The experiment in a line: HepG2 72 h cytotoxicity. The settings on record: HepG2 cytotoxicity vs antimalarial activity.
A short description of series [6]: HepG2 72 h cytotoxicity. The following applies: human, HepG2 cells.

SMILES strings stand for the structures. Counter-ions that a name gives are not always drawn. Like-named read-outs stand apart in the source and are kept apart here.

Consider 27 compounds from publication PMC4550221 (Bioorganic & medicinal chemistry, 2015).

For `CCN1C(=O)N(CC)C2(CCN(Cc3cc(Cl)ccc3O)CC2)C1=O` [Compound 10b], in series [1], the “fold reduction in 3D7 potency” value is recorded as no less than 20 fold.
Consider `CC(C)CCN1C(=O)N(Cc2cccnc2)C(=O)C12CCN(Cc1cc(Cl)ccc1O)CC2` [Compound 11c], for which the “3D7 potency described in words (relative to comparator)” value in series [1] is recorded as “modest two-three-fold losses of potency”.
On to `CCN1C(=O)N(CCC(C)C)C2(CCN(Cc3cccc(Cl)c3)CC2)C1=O` [Compound 4f], for which, in series [1], the “fold loss in 3D7 potency” value is 8- to 60 fold.
In the case of `CCN1C(=O)N(C2CCCC2)C2(CCN(Cc3cc(Cl)ccc3O)CC2)C1=O` [Compound 10c], the “3D7 potency described in words (relative to comparator)” value in series [1] is given as “well tolerated”.
On to `CCN1C(=O)N(CCC(C)C)C2(CCN(C(=O)c3cc(Cl)ccc3O)CC2)C1=O` [Compound 12m], for which the “3D7 potency described in words (relative to comparator)” value in series [1] is “lack of 3D7 potency”.
Turning to `CCN1C(=O)N(CCC(C)C)C2(CCN(Cc3cc(Br)ccc3O)CC2)C1=O` [Compound 12d], the “3D7 potency described in words (relative to comparator)” value in series [1] is on record as “well tolerated”.
Consider `CCN1C(=O)N(CCC(C)C)C2(CCN(Cc3ccc(OC)cc3OC)CC2)C1=O` [Compound 4g], for which the “fold loss in 3D7 potency” value in series [1] is recorded as 8- to 60 fold.
For the compound `CCN1C(=O)NC2(CCN(Cc3cc(Cl)ccc3O)CC2)C1=O` [Compound 10a], the “fold reduction in 3D7 potency” value in series [1] was no less than 20 fold.
On to `CCN1C(=O)N(CCC(C)C)C2(CCN(Cc3ccc(OC)cc3O)CC2)C1=O` [Compound 4a], for which, in series [2], the IC50 was 840 nM.
`CCN1C(=O)N(CCC(C)C)C2(CCN(Cc3cccc4cc[nH]c34)CC2)C1=O` [Compound 12u]: the “3D7 potency described in words (relative to comparator)” value in series [1] is recorded as “hint of potency”.
Regarding `CCN1C(=O)N(CCC(C)C)C2(CCN(Cc3cc(Cl)ccc3O)CC2)C1=O` [Compound 4e, 8-(5-chloro-2-hydroxybenzyl)-3-ethyl-1-isopentyl-1,3,8-triazaspiro[4.5]decane-2,4-dione hydrochloride], the EC50 in series [3] is 349 nM. Further, the IC50 in series [1] (read-out: IC50 in P. falciparum 3D7 infected erythrocytes) is 310 nM. For the same compound, the “3D7 potency described in words (relative to comparator)” value in series [1] is recorded as “about a five-fold improvement in potency”. The compound also returned a clearance in series [4] of 152 mL/min/kg. In series [5], this compound came in with a selectivity index greater than 100.
As for `CCN1C(=O)N(Cc2ccc(C#N)cc2)C2(CCN(Cc3cc(Cl)ccc3O)CC2)C1=O` [Compound 10h], the “3D7 potency described in words (relative to comparator)” value in series [1] is recorded as “tolerated with some modest effects on potency”.
For the compound `CC(C)CCN1C(=O)NC(=O)C12CCN(Cc1cc(Cl)ccc1O)CC2` [Compound 11a], the “3D7 potency described in words (relative to comparator)” value in series [1] is listed as “dramatic loss in activity”.
`CCN1C(=O)N(CCC(C)C)C2(CCN(Cc3ccccc3O)CC2)C1=O` [Compound 4d]: the “3D7 potency described in words (relative to comparator)” value in series [1] is “did not have a significant impact on potency”.
In series [6], `CCN1C(=O)N(CCC(C)C)C2(CCN(Cc3cc(-c4ccccc4)ccc3O)CC2)C1=O` [Compound 12f] showed an IC50 at 72 h greater than 50 µM.
As to `CCN1C(=O)N(Cc2ccc(OC)cc2)C2(CCN(Cc3cc(Cl)ccc3O)CC2)C1=O` [Compound 10g], in series [1], the “3D7 potency described in words (relative to comparator)” value is on record as “tolerated with some modest effects on potency”.
For the compound `CCN1C(=O)N(CCC(C)C)C2(CCN(Cc3cc(Cl)c(Cl)cc3O)CC2)C1=O` [Compound 12k], in series [1] (read-out: IC50 in P. falciparum 3D7 infected erythrocytes, 3D7 (chloroquine-sensitive) strain), the IC50 turned out to be 99 nM. The selectivity index entry in series [5] was “greater than 500”. Besides, the IC50 at 72 h in series [6] is greater than 50 µM.
In the case of `CCN1C(=O)N(CCC(C)C)C2(CCN(Cc3cc(Cl)cc(Cl)c3O)CC2)C1=O` [Compound 12j], the “3D7 potency described in words (relative to comparator)” value in series [1] was “equipotent”.
Take `CCN1C(=O)N(CCC(C)C)C2(CCN(Cc3ccc(Cl)cc3O)CC2)C1=O` [Compound 12h]: in series [1], the “3D7 potency described in words (relative to comparator)” value is reported as “three- to seven-fold less potent”. In addition, in series [6], the IC50 at 72 h was greater than 50 µM.
In the case of `CCN1C(=O)N(CCC(C)C)C2(CCN(Cc3cc(O)cc(Cl)c3)CC2)C1=O` [Compound 12a], the “3D7 potency described in words (relative to comparator)” value in series [1] is “increasingly detrimental to 3D7 potency”.
Take `CCN1C(=O)N(CCC(C)C)C2(CCN(Cc3cccc(OC)c3O)CC2)C1=O` [Compound 4b]: in series [1], the “fold loss in 3D7 potency” value is listed as 6 fold.
As to `CCN1C(=O)N(c2ccccc2)C2(CCN(Cc3cc(Cl)ccc3O)CC2)C1=O` [Compound 10d], the “3D7 potency described in words (relative to comparator)” value in series [1] was “detrimental to potency”.
Consider `CC(C)CCN1C(=O)N(C(C)C)C(=O)C12CCN(Cc1cc(Cl)ccc1O)CC2` [Compound 11b], for which, in series [1], the “3D7 potency described in words (relative to comparator)” value is reported as “improved potency three-fold”.
In the case of `CCN1C(=O)N(CCc2ccccc2)C2(CCN(Cc3cc(Cl)ccc3O)CC2)C1=O` [Compound 10f], the “3D7 potency described in words (relative to comparator)” value in series [1] is listed as “roughly equipotent”.
As for `CCN1C(=O)N(CCC(C)C)C2(CCN(Cc3c(O)cccc3Cl)CC2)C1=O` [Compound 12g], in series [1], the “3D7 potency described in words (relative to comparator)” value is on record as “essentially equipotent”.
Take `CC(C)CCN1C(=O)N(CCCc2ccncc2)C(=O)C12CCN(Cc1cc(Cl)ccc1O)CC2` [Compound 11d]: the “3D7 potency described in words (relative to comparator)” value in series [1] is listed as “modest two-three-fold losses of potency”.
Regarding `CCN1C(=O)N(Cc2ccccc2)C2(CCN(Cc3cc(Cl)ccc3O)CC2)C1=O` [Compound 10e], the “3D7 potency described in words (relative to comparator)” value in series [1] was “roughly equipotent”.
